# Laboratory results reported in US20210198284A1, “GOLD COMPOSITIONS AND METHODS OF USE THEREOF” (THE UNIVERSITY OF MASSACHUSETTS, priority 2018, published 2021).
# Like-named read-outs stand apart in the source and are kept apart here.
# Assays:
# [1] = system: C. neoformans ATCC 208821; experiment: Antifungal MIC; format: cell-based; conditions: C. neoforman, strain not named
# [2] = Log P determination (n-octanol/water, FAAS)
# Description: Log P Determination: Calibration curves. Milli-Q Water (150 mL) was added to n-octanol (150 mL), and the mixture was stirred for 3 days to allow both phases to reach saturation. The gold standard solution (1000 ppm Au in hydrochloric acid, Fisher Scientific) was diluted to 1, 2, 3, 4 and 5 ppm with n-octanol-saturated water, and the absorbance of the resulting solutions was measured by flame atomic absorption spectroscopy (FAAS, Agilent Technology 200 Series AA, equipped with a gold HC Lamp-Au coded). The absorbance data were plotted against Au concentration, and the resulting calibration curve was used for determining the concentration of the analogs in the aqueous phase.
# To construct the standard calibration curve of the Au concentration in the n-octanol phase, compound 27 was used. The Au concentration in compound 27 was first calibrated against the aqueous gold standard. For this, 0.440 mg of compound 27 was weighed on a Sartorius MC5 microbalance, and then added to 22 mL of n-octanol-saturated water. […] For this, solutions of varying concentrations (0.99, 2.47, 4.94, 5.93, 9.88 ppm) of compound 27 in water-saturated n-octanol were prepared. The absorbance was measured by FAAS, and the data were plotted against the Au concentration to provide a second calibration curve, which was used for determining the Au concentration of the analogs in the n-octanol phase.
# Determination of Au concentrations: Method 1. 0.5 to 1 mg of compound was weighed into a 2-mL Eppendorf tube containing 2 mL of n-octanol-saturated water. After shaking for about 4 h, the solution was centrifuged at 6000 rpm for 3 min. 1 mL of the supernatant was transferred to a new tube containing 1 mL of water-saturated n-octanol, and the mixture was shaken for 1 h. After centrifugation at 6000 rpm for 5 min, the two layers were collected and the gold concentration in each layer was determined by FAAS by comparing the absorbance to the first and second calibration curves.
# Determination of Au concentrations: Method 2. […] For Method 2, 0.6 to 1 mg of compound was weighed into a 2-mL Eppendorf tube containing 1 mL of n-octanol-saturated water and 1 mL of water-saturated n-octanol. After shaking for 3-4 h, the mixture was centrifuged, and all liquid was transferred to a 15-mL tube. The liquid was then diluted with 2 mL of n-octanol-saturated saturated water and 2 mL of water-saturated n-octanol, and the mixture was shaken for another hour. After centrifugation at 6000 rpm for 5 min, the two layers were collected and the gold concentration in each layer was determined by FAAS by comparing the absorbance to the first and second calibration curves.
# Log P was calculated as follows: log P=log[compound]oct/[compound]water
# S. aureus JE2 (USA300) = experiment: Antibacterial assay, MIC/MBC by broth microdilution (CLSI); format: cell-based; conditions: S. aureus JE2 (USA300); for MIC: repeated twice, a/b = both values
# Description: (§1) Antibacterial assay. The minimum inhibitory concentrations (MICs) and the minimum bactericidal concentrations (MBCs) were determined by the broth microdilution method as described in the CLSI (The Clinical & Laboratory Standards Institute) guidelines (Performance standards for antimicrobial susceptibility testing: Clinical and Laboratory Standards Institute (CLSI), Twenty-Fifth informational supplement. Document M100-S25: […]; Vol. 35). All bacterial strains were cultured in cation-adjusted Muller Hinton broth (CAMHB) up to log-phase and then diluted to give a concentration of 7.5×10^5 CFU/mL. The gold complexes were dissolved in DMSO or water as stock solutions, which were then serially diluted two-fold in a 96-well plate. Aliquots (100 μL) of the dilutions were mixed with equal volumes of the bacterium suspension in a 96 well plate (in triplicates). The plates were incubated at 37° C. for 18 h without shaking. Negative and positive controls were included in the same well plate with wells having the culture medium only and bacteria solution only, respectively. The sample concentration that gave inhibition values above 90% were determined as MICs as calculated from absorbance values at 600 nm (OD600) obtained using a Tecan SPARK IOM plate reader. To determine minimum bactericidal concentrations (MBCs), agar plates were treated with 5 μL sample solutions from each well, and then incubated at 37° C. for 18 h without shaking. The sample concentration that gave no colony formed on agar plates were determined as MBCs.
# (§2) Selection of bacteria. The ESKAPE pathogens were chosen as they are responsible for the majority of nosocomial infections and also as they provide a good scope of strains including both Gram-negative and Gram-positive species. A. baumannii NCTC 13420 was originally identified in 24 hospitals in the UK during 2000-2003, which produced OXA-51-like β-lactamases, and was highly resistant to ampicillin, piperacillin, piperacillin/tazobactam, ceftazidime, cefotaxime, gentamicin and ciprofloxacin. P. aeruginosa NCTC13437 produces VIM-10 metallo-carbapenemase and VEB-1 (Vietnamese extended-spectrum beta-lactamase). Wild-type strain E. cloacae NCTC 13405 (originally named E. cloacae 684) was isolated from patients at the London Hospital during 1982-1983. This strain has inducible AmpC β-lactamase and is resistant to ampicillin/amoxicillin and cefoxitin. K. pneumoniae ATCC 700603 was isolated from the urine of a hospitalized patient in Richmond, Va. in 1994, and it produces SHV-18 extended spectrum beta-lactamase (ESBL). JE2 (USA300) is a methicillin-resistant S. aureus (MRSA) strain, also resistant to beta-lactams, ciprofloxacin, tetracycline, macrolides (erythromycin), lincosamides (clindamycin), streptogramin B, and mupirocin. E. faecium ATCC 700221, a positive fecal VRE (vancomycin-resistant enterococcus) isolate, is resistant to several antibiotics including vancomycin and teicoplanin. The quality control strain, Gram-negative E. coli ATCC 25922, was included in all assays and validated with ciprofloxacin and […].
# E. cloacae NCTC 13405 = experiment: as above; format: cell-based; conditions: E. cloacae NCTC 13405; for MIC: repeated twice, a/b = both values
# Description: as §1, §2
# E. faecalis ATCC 700221 = experiment: as above; format: cell-based; conditions: for MIC: repeated twice, a/b = both values
# Description: as §1, §2
# P. aeruginosa NCTC 13437 = experiment: as above; format: cell-based; conditions: P. aeruginosa NCTC 13437; for MIC: repeated twice, a/b = both values
# Description: as §1, §2
# [3] = system: K. pneumoniae ATCC 700603; experiment: as above; format: cell-based; conditions: K. pneumoniae ATCC 700603; for MIC: repeated twice, a/b = both values
# Description: as §1, §2
# A. baumannii NCTC 13420 = experiment: as above; format: cell-based; conditions: A. baumannii NCTC 13420; for MIC: repeated twice, a/b = both values
# Description: as §1, §2
# E. coli ATCC 25922 = experiment: as above; format: cell-based; conditions: for MIC: repeated twice, a/b = both values
# Description: as §1, §2
# A549 cells = experiment: Cytotoxicity assay (resazurin); format: cell-based; conditions: 20 h, mean±S.E.M. from two independent experiments
# Description: Sample preparation. The compounds were dissolved in DMSO at 12.8 mg/mL as the stock solutions, except for compounds 9-17, which were directly dissolved in the culture medium at 12.8 mg/mL. The stock solutions were diluted by the culture medium to the testing concentration at 128 μg/mL (compound 9-17 were diluted to 1,280 μg/mL). The solutions were then serially diluted two fold in a 96-well plate and were used in the cytotoxicity assay immediately.
# Cell culture and cytotoxicity assay. A549 cells (ATCC CCL-185) were cultured in high glucose DMEM (Sigma-Aldrich, D6429) supplemented with 10% FBS, 1% penicillin-streptomycin solution (Sigma-Aldrich, P4333), 1% gentamicin solution (Sigma-Aldrich, G1272) and 1% amphotericin B solution (Sigma-Aldrich, A2942) at 37° C. in a humidified atmosphere containing 5% CO2. After cells reached 80%˜90% confluency, they were detached and counted using an Invitrogen Countess automated cell counter. Cells with viability over 90% were seeded at a density of 5×10^3 cells per well in 96-well cell culture plates. After overnight culture, the culture medium in each well removed with a pipet. 80 μL of the compound solutions from each well of the 96-well plate prepared above were transferred to this 96-well plate containing the cells, and the plates were incubated for 20 h. After addition of 8 μL of 110 μg/mL resazurin, the plates were incubated for further 3 h at 37° C. in 5% CO2. The fluorescence intensity was measured using a Tecan M200 Infinite Pro microplate reader at excitation 560 nm, emission 590 nm. IC50 were calculated by curve fitting the inhibition values vs. log(concentration) using GraphPad's Prism. The cytotoxicity assays (in triplicate) were repeated twice using freshly prepared cells and compound solutions.
Compound,antifungal activity in words [1],logP [2],"Log P ([2]; n-octanol/water, gold by FAAS)",MBC (in brackets) (S. aureus JE2 (USA300)),MBC (in brackets) (E. cloacae NCTC 13405),MIC (E. cloacae NCTC 13405),MBC (in brackets) (E. faecalis ATCC 700221),MBC (in brackets) (P. aeruginosa NCTC 13437),MIC (P. aeruginosa NCTC 13437),MBC (in brackets) [3],MIC [3],MBC (in brackets) (A. baumannii NCTC 13420),MIC (A. baumannii NCTC 13420),MBC (in brackets) (E. coli ATCC 25922),MIC (E. coli ATCC 25922),IC50 against A549 cells (A549 cells) [µg/mL],Log P [2],MIC (S. aureus JE2 (USA300)),MIC (E. faecalis ATCC 700221)
CC[P+](CC)(CC)[Au-]1[SH](CC2O[C@H](O[C@H]3OC(COC(C)=O)[C@@H](OC(C)=O)C(OC(C)=O)[C@H]3OC(C)=O)C(OC(C)=O)[C@@H](OC(C)=O)[C@@H]2OC(C)=O)[Au]1[PH](CC)(CC)CC (stereo partly drawn) [Compound 7],moderate antifungal activity,-0.28,–,–,–,–,–,–,–,–,–,–,–,–,–,–,–,–,–
(Triethylphosphine) gold chloride [Compound 29],–,–,1.74,02 (0.2) μM/mL,23 (23) μM/mL,23 (23) μM/mL,(0.7) μM/mL,183 μM/mL,92 μM/mL,46 (46) μM/mL,46 (46) μM/mL,23 μM/mL,11/23,23 (23) μM/mL,23 (23) μM/mL,9.5 ± 0.1,–,–,–
(2-Acetamido-2-deoxy-1-thio-β-D-glucopyranosato)(trimethylphosphine) gold(I) [Compound 17],–,–,–,0.5 (0.5) μM/mL,16 μM/mL,8/16,(0.5) μM/mL,–,>503 μM/mL,126 μM/mL,31 μM/mL,16 μM/mL,16/8,(31) μM/mL,8/31,35.5 ± 0.9,−2.03,0.5 (0.5) μM/mL,–
(1-Thio-β-D-galatopyranosato)(trimethylphosphine) gold(I) [Compound 16],–,–,–,0.3 (0.3) μM/mL,4(4) μM/mL,4(4) μM/mL,(0.5) μM/mL,–,>547 μM/mL,34 (34) μM/mL,34 (34) μM/mL,17 μM/mL,17/9,9 (9) μM/mL,9 (9) μM/mL,43.0 ± 3.7,−1.88,0.3 (0.3) μM/mL,–
(Tris(4-methoxyphenyl)phosphine) gold chloride [Compound 32],–,–,>4.09,3 μM/mL,–,>438 μM/mL,3 (3) μM/mL,–,>438 μM/mL,–,>438 μM/mL,–,>438 μM/mL,–,>438 μM/mL,9.4 ± 1.7,–,2 μM/mL,3 (3) μM/mL
(1-Thio-β-D-glucopyranosato)(trimethylphosphine) gold(I) [Compound 15],–,–,–,(1) μM/mL,17 μM/mL,4/9,(0.5) μM/mL,–,>547 μM/mL,34 (34) μM/mL,34 (34) μM/mL,17 μM/mL,17/4,9 (9) μM/mL,9 (9) μM/mL,52.2 ± 1.0,−1.63,–,–
(Tris(4-trifluoromethylphenyl)phosphine) gold chloride [Compound 34],–,–,>3.94,11 μM/mL,–,>366 μM/mL,–,–,>366 μM/mL,–,>366 μM/mL,–,>366 μM/mL,–,>366 μM/mL,85.6 ± 26.1,–,3/1,>366 μM/mL
(Benzenethiolato)(triethylphosphine) gold(I) [Compound 18],–,–,–,(0.6) μM/mL,603 μM/mL,75 μM/mL,1 μM/mL,302 (302) μM/mL,302 (302) μM/mL,–,>603 μM/mL,(>603) μM/mL,19/75,(151) μM/mL,151 μM/mL,4.3 ± 0.2,2.20,0.02 μM/mL,0.6 μM/mL
